# Like-named read-outs stand apart in the source and are kept apart here.
# Experiments:
# E. faecium = experiment: Antibiotic susceptibility (MIC, Sensititre Trays) with rBPI21 poloxamer formulations; format: cell-based; details: for MIC: Enterococcus faecium, read-out: Minimum Inhibitory Concentration
# Description: The effect of therapeutic compositions of rBPI21 formulated with poloxamer, with or without EDTA, was evaluated on the antibiotic susceptibility of the multiple drug resistant A. baumannii, S. pneumoniae, E. faecium and P. aeruginosa organisms of Example 5. Therapeutic compositions were prepared containing 2 mg/mL rBPI21, (5 mM sodium citrate, 150 mM NaCl) with a 0.2% (w/v) concentration of PLURONIC F68, P103, P104, P105 or P123. The effect on the antibiotic susceptibility of the organisms was determined in Mueller-Hinton Broth plus Cations (CSMHB, Remel), or 40% pooled human serum in CSMHB (Sigma, St. Louis, Mo.), as follows.
# Isolated colonies of the organism from overnight cultures were suspended in Microscan® Inoculum Water to a concentration equivalent to a 0.5 McFarland Standard (approximately 1×10^8 CFU/ml), determined using a Microscan® turbidimeter. Aliquots were transferred to either CSMHB or 40% pooled human serum in CSMHB. Each tube contained either a final concentration of 16 μg/mL rBPI21 or an equivalent volume of control buffer. Minimal inhibitory concentrations (MIC) for each antibiotic tested, i.e. the lowest concentration of antibiotic which inhibits visible growth, were determined using gram-negative (MB and MC) and gram-positive (MA) Sensititre Trays (Radiometer America, Westlake, Ohio), which allow for the rapid and simultaneous survey of a broad spectrum of standard antibiotics. Any other antimicrobial panel systems known in the art, such as the Microscan® (Dade Microscan, Sacramento, Calif.), Pasco (DIFCO, Detroit, Mich.) and Alamar (Alamar, Sacramento, Calif.) systems, may alternatively be used to assay for antibiotic susceptibility.
# Tables 12-15 below display a summary of the results of the antibiotic screening panels, reported for each strain tested as the MIC of the tested antibiotics in the presence of the indicated rBPI21 therapeutic composition. The antibiotic susceptibility standards (interpretation of an MIC as clinically resistant (R), intermediate (I) or susceptible (S) according to NCCLS standards) applicable to the organism tested appear in superscript next to the MIC.
# [1] = tested on: P. aeruginosa (ATCC 19660); experiment: Antibiotic susceptibility (MIC, Microscan® MIC Plus Type 2 panel) with rBPI21/P123 and EDTA; format: cell-based; parameters: key to susceptibility interpretation of MIC (superscript): R: resistant; I: intermediate; S: susceptible
# Description: In additional experiments, a BPI protein product, rBPI21, was formulated with an anti-bacterial activity enhancing poloxamer, specifically PLURONIC P123, and with various concentrations of EDTA, and was evaluated for its effect on the antibiotic susceptibility of a Pseudomonas aeruginosa (ATCC 19660). Antibiotic susceptibility was determined using Microscan® panel plates (Dade Microscan, West Sacramento, Calif.) that allow simultaneous determination of minimum inhibitory concentrations for a number of different antibiotics.
# The antimicrobial susceptibility tests performed on the Microscan® panel plates are miniaturizations of the broth dilution susceptibility test. Antimicrobial agents are serially diluted in Mueller-Hinton broth (supplemented with calcium and magnesium, or with sodium chloride for oxacillin, or with thymidine phosphorylase for trimethoprim, sulfamethoxazole and trimethoprim/ sulfamethoxazole) to concentrations bridging the range of clinical interest. One well on the 96-well Microscan® plate is a growth control well that contains dehydrated broth only. The remaining wells contain dehydrated broth and antibiotic (or broth and biochemical reagent indicator), which is rehydrated to the desired concentration by inoculation of a standardized suspension of test organism. The chromogenic biochemical agent indicators are used to identify and characterize the species of bacteria based on detection of pH changes and substrate utilization. […] Gram-negative and gram positive organisms may be tested using any of the Microscan® panel plates (Microscan®, Dade Microscan, West Sacramento, Calif.). In these experiments with P. aeruginosa, the MIC Plus Type 2 panel plates were used. The concentrations of antibiotics tested in this panel plate are shown below in Table 16. The antibiotic susceptibility standards (interpretation of an MIC as resistant, intermediate or susceptible according to Microscan®'s NCCLS-derived standards) applicable to the gram-negative organisms that may be tested in each panel plate appear below in Table 16A.
# For these experiments with P. aeruginosa, the following procedure was performed: The organism was streaked onto TSA plates (Remel, Lenexa, Kans.) and incubated for 18-24 hours overnight. Well-isolated A, colonies from the plates were emulsified in 3 ml of sterile Inoculum Water d(catalog no. B1015-2, MicrosScan® system, Dade Microscan, West Sacramento, Calif.) to a final turbidity equivalent to 0.5 McFarland Barium Sulfate standard. This cell suspension was vortexed for 2 to 3 seconds and 100 μl was transferred to glass tubes containing 25 ml of Inoculum Water with Pluronic-D (catalog no. B1015-7, MicroScan® system, Dade Microscan, West Sacramento, Calif.) (hereinafter “Pluronic Inoculum Water”), or 25 ml of Pluronic Inoculum Water into which rBPI21 in 0.2% PLURONIC P123, 0.002% TWEEN 80, 5mM sodium citrate, 150 mM NaCl (“rBPI21/P123”) had been diluted to 64 μg/ml rBPI21.
# The 25 ml of this inoculum containing rBPI21 was mixed by inversion and poured into a tray. The inoculum was drawn up into a manual 96-well pipetting system (RENOK^− rehydrator-inoculator system, Dade Microscan, West Sacramento, Calif.) designed for use with the Microscan® panel plates, and 110 μl of the inoculum was delivered to each well of a Microscan® MIC Plus Type 2 panel plate. When added to the wells, this inoculum achieves a final bacterial concentration of 4×10^5 to 7×10^5 CFU/ml. The panel plates were then incubated at 35° C. for 15-24 hours and read visually for cell growth.
# No growth was defined as a slight whiteness in the well or a clear broth. Growth appeared as turbidity which could take the form of a white haze throughout the well, a white button in the center of the well, or a fine granule growth throughout the well. All wells were read against a black indirectly lighted background. Visual results of the biochemical reactions were read into a database for bacterial identification.
# [2] = CSMHB, 16 μg/mL rBPI21 with F68
# [3] = CSMHB, 16 μg/mL rBPI21 with P103
# [4] = CSMHB, 16 μg/mL rBPI21 with P104
# [5] = CSMHB, 16 μg/mL rBPI21 with P105
# [6] = CSMHB, 16 μg/mL rBPI21 with P123
# [7] = Serum, 16 μg/mL rBPI21 with F68
# [8] = Serum, 16 μg/mL rBPI21 with P103
# [9] = Serum, 16 μg/mL rBPI21 with P104
# [10] = Serum, 16 μg/mL rBPI21 with P105
# [11] = Serum, 16 μg/mL rBPI21 with P123
# [12] = rBPI21/P123 at 64 μg/ml rBPI21, With 0% EDTA
# [13] = rBPI21/P123 at 64 μg/ml rBPI21, With 0.01% EDTA
# [14] = rBPI21/P123 at 64 μg/ml rBPI21, With 0.05% EDTA
# [15] = rBPI21/P123 at 64 μg/ml rBPI21, With 0.1% EDTA
SMILES,susceptibility interpretation of MIC (superscript) (E. faecium; [2]),susceptibility interpretation of MIC (superscript) (E. faecium; [3]),susceptibility interpretation of MIC (superscript) (E. faecium; [4]),susceptibility interpretation of MIC (superscript) (E. faecium; [5]),susceptibility interpretation of MIC (superscript) (E. faecium; [6]),"susceptibility interpretation of MIC (superscript) (E. faecium; CSMHB, Control (no BPI))",MIC (E. faecium; [2]) [µg/mL],MIC (E. faecium; [3]) [µg/mL],MIC (E. faecium; [4]) [µg/mL],MIC (E. faecium; [5]) [µg/mL],Minimum Inhibitory Concentration of Antibiotic ([1]; Control (No BPI21)) [µg/mL],susceptibility interpretation of MIC (superscript) ([1]; Control (No BPI21)),"Minimum Inhibitory Concentration of Antibiotic [1, 12] [µg/mL]","susceptibility interpretation of MIC (superscript) [1, 12]","Minimum Inhibitory Concentration of Antibiotic [1, 13] [µg/mL]","susceptibility interpretation of MIC (superscript) [1, 13]","Minimum Inhibitory Concentration of Antibiotic [1, 14] [µg/mL]","susceptibility interpretation of MIC (superscript) [1, 14]","Minimum Inhibitory Concentration of Antibiotic [1, 15] [µg/mL]","susceptibility interpretation of MIC (superscript) [1, 15]",other results
O=C(O)c1cn(C2CC2)c2cc(N3CCNCC3)c(F)cc2c1=O [Ciprofloxacin],S,S,S,S,S,I,1,< 0.5,1,1,< 0.25,S,< 0.25,S,< 0.25,S,< 0.25,S,< 0.25,S,"MIC (E. faecium; [6]): 1 µg/mL; MIC (E. faecium; CSMHB, Control (no BPI)): 2 µg/mL; susceptibility interpretation of MIC (superscript) (E. faecium; [7]): S; susceptibility interpretation of MIC (superscript) (E. faecium; [8]): I; susceptibility interpretation of MIC (superscript) (E. faecium; [9]): I; susceptibility interpretation of MIC (superscript) (E. faecium; [10]): I; susceptibility interpretation of MIC (superscript) (E. faecium; [11]): I; susceptibility interpretation of MIC (superscript) (E. faecium; Serum, Control (no BPI)): I"
CO[C@H]1/C=C/O[C@@]2(C)Oc3c(C)c(O)c4c(O)c(c(/C=N/N5CCN(C)CC5)c(O)c4c3C2=O)NC(=O)/C(C)=C\C=C\[C@H](C)[C@H](O)[C@@H](C)[C@@H](O)[C@@H](C)[C@H](OC(C)=O)[C@@H]1C [Rifampicin],S,S,S,S,S,R,0.5,0.5,0.5,0.5,–,–,–,–,–,–,–,–,–,–,"MIC (E. faecium; [6]): 0.5 µg/mL; MIC (E. faecium; CSMHB, Control (no BPI)): 4 µg/mL; MIC (E. faecium; [7]): 1 µg/mL; MIC (E. faecium; [8]): 1 µg/mL; MIC (E. faecium; [9]): > 4 µg/mL; MIC (E. faecium; [10]): 0.5 µg/mL; MIC (E. faecium; [11]): 0.5 µg/mL; MIC (E. faecium; Serum, Control (no BPI)): 4 µg/mL; susceptibility interpretation of MIC (superscript) (E. faecium; [7]): S; susceptibility interpretation of MIC (superscript) (E. faecium; [8]): S; susceptibility interpretation of MIC (superscript) (E. faecium; [9]): R; susceptibility interpretation of MIC (superscript) (E. faecium; [10]): S; susceptibility interpretation of MIC (superscript) (E. faecium; [11]): S; susceptibility interpretation of MIC (superscript) (E. faecium; Serum, Control (no BPI)): R"
CCN[C@@H]1C[C@H](N)[C@@H](O[C@H]2OC(CN)=CC[C@H]2N)[C@H](O)[C@H]1O[C@H]1OC[C@](C)(O)[C@H](NC)[C@H]1O [Netilmicin],–,–,–,–,–,–,–,–,–,–,4,S,< 2,S,< 2,S,< 2,S,< 2,S,–
CC1(C)S[C@@H]2[C@H](NC(=O)C(C(=O)O)c3ccccc3)C(=O)N2[C@H]1C(=O)O (stereo partly shown) [Carbenicillin],–,–,–,–,–,–,–,–,–,–,32,I,< 16,S,< 16,S,< 16,S,< 16,S,–
CC1(C)S[C@@H]2[C@H](NC(=O)[C@H](C(=O)O)c3ccsc3)C(=O)N2[C@H]1C(=O)O [Ticarcillin],–,–,–,–,–,–,–,–,–,–,< 16,S,< 16,S,< 16,S,< 16,S,< 16,S,–

# Reference: patent US6849598B1, “Therapeutic compositions comprising bactericidal/permeability-increasing (BPI) protein products” (XOMA, priority 1995, dated 2005)
